Results published in US8314247B2, “Hydrazone derivative” (Mitsubishi Tanabe Pharma Corporation, priority 2007, dated 2012).

target: T1, human-liver type GST-GK (Homo sapiens, UniProt P35557); test: Glucokinase activation effect (G6PDH-coupled NADPH assay); assay type: biochemical; settings: glucose 5 mM, ATP 5 mM, 30° C., NADPH monitored at 340 nm for 10 minutes, compound 0.01 to 100 μM (5% DMSO)
T1 construct: made in house; host or cells: E. coli
T1 sequence (P35557 1-466 isoform P35557-2): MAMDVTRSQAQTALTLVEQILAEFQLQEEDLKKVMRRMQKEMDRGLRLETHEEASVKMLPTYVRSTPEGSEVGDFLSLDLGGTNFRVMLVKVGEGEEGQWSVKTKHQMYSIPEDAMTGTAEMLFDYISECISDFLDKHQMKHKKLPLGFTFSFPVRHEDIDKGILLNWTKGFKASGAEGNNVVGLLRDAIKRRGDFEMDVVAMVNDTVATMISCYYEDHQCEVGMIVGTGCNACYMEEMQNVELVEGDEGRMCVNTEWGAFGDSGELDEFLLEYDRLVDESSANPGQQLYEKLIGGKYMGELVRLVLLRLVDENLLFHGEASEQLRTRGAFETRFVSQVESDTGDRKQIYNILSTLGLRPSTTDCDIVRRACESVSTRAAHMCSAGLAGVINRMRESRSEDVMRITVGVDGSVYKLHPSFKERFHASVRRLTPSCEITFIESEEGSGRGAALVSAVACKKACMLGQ
Method: A glucokinase activity was examined by measuring the amount of NADPH obtained in generating 6-phosphogluconic acid from […], not by directly measuring the generated glucose-6-phosphoric acid. The glucokinase enzyme used in the examination was human-liver type GST-GK expressed by E. Coli. The measurement of the activity was carried out by the following procedures. Specifically, 30 mM HEPES buffer (pH7.4) containing 30 mM MgCl2, 30 mM KCl, 1 mM DTT, 5 mM NADP (Nacalai), 0.7 mU/mL G6PDH (Roche 737-232 grade II from yeast) and 0.17 μL/mL GST-GK was prepared as a reaction solution. An evaluating compound dissolved in DMSO was added to the reaction solution to give a final concentration of 0.01 to 100 μM (5% DMSO). Thereto was added glucose (final concentration of 5 mM) as a substrate and was added ATP (final concentration of 5 mM) to proceed the reaction. The reaction temperature is 30° C. and a generation of NADPH was monitored by changes of absorbance of 340 nm. An increase of absorbance for 10 minutes after starting reaction was measured and the blank-corrected value was used as a GK activity (mOD/min). EC50 level was calculated by a GK activity level in an addition of the evaluating compound at each concentration.

EC50 [nM]	Compound
360	O=C(Nc1ncc(F)s1)/C(=N/N1CCOCC1)c1ccc(S(=O)(=O)C2CC2)cc1 [Example 2]
220	CN1CCN(S(=O)(=O)c2cnc(NC(=O)/C(=N/N3CCCC3)c3ccc(S(=O)(=O)C4CC4)cc3)s2)CC1 [Example 27]
30	O=C(Nc1ncc(Br)s1)/C(=N/N1CCCC1)c1ccc(S(=O)(=O)C2CC2)cc1 [Example 24]
110	O=C(Nc1ncc(Cl)s1)/C(=N/N1CCOCC1)c1ccc(S(=O)(=O)C2CC2)cc1 [Example 42]
120	CN(C)S(=O)(=O)c1cnc(NC(=O)/C(=N/N2CCCC2)c2ccc(S(=O)(=O)C3CC3)cc2)s1 [Example 64]
70	COc1ccc2nc(NC(=O)/C(=N/N3CCCC3)c3ccc(S(=O)(=O)C4CC4)cc3)sc2n1 [Example 1]
